Reference: patent US20250171434A1, “SEC61 INHIBITORS AND USE THEREOF” (KEZAR LIFE SCIENCES, INC., priority 2022, published 2025)

Columns and labels:
[1] = Liver Microsome Stability Assay, human; assay type: in vitro ADME; details: human liver microsomes 1.0 mg/mL, 1.0 uM compound, 37° C., 1 mM NADPH
Description: (§1) Stability of a compound was assessed in the presence of liver microsomes from various sources—mouse, rat, monkey and human liver microsomes. 1.0 uM compound, 0.4% DMSO in 0.1 M Potassium Phosphate with 1.0 mg/mL liver microsomes, were incubated at 37° C. with or without 1 mM NADPH. The samples were quenched at 0, and 30 minutes.

[2] = Liver Microsome Stability Assay, mouse; assay type: in vitro ADME; details: mouse liver microsomes 1.0 mg/mL, 1.0 uM compound, 37° C., 1 mM NADPH
Description: as §1

[3] = test system: IL6R-ss+10aa/Gaussia Luciferase; assay: Dox-induced IL-6R-ss-Gluc Assay; assay type: cell-based; details: Table 1; for IC50: Flp-In 293 T-REx cells, 24 hours with doxycycline, read-out: 24hr Dox Inducible IL6R(ss + 10)Gluc 293FRT/TO: Mean IC50; for 24hr Dox Inducible IL6R(ss + 10)Gluc 293FRT/TO: IL6R/PD1: ratio of IC50s IL6R/PD1
Excerpt: Flp-In 293 T-REx™ cells were transfected with pcDNATM5/FRT/TO plasmid inserted with cDNA encoding Gaussia Luciferase fused to the 3′ end of cDNA encoding IL6R signal sequence plus 10 amino acids (N-[…]-C). Transfected cells were selected for resistance to the selectable markers Hygromycin and Blasticidin to create a stable cell line that contained the IL6R-ss+10aa/Gaussia Luciferase cDNA insert whose expression was regulated under the T-REx™ system. The day before assay, cells were trypsinized and plated in 384-well tissue culture plates. The next day, compound dilutions in DMSO/media containing doxycycline were added to the wells and incubated at 37° C., 5% CO2.
(§2) For chemical structures that include one or more stereoisomers, but are illustrated without indicating stereochemistry, the assay data refers to a mixture of stereoisomers.

[4] = test system: IL-2-FL/Gaussia Luciferase; assay: Dox Inducible IL2-FL-Gluc Assay; assay type: cell-based; details: Table 1; for IC50: Flp-In 293 T-REx cells, 24 hours with doxycycline, read-out: 24 hr Dox Inducible IL2FLGluc 293FRT/TO: Mean IC50; for 24 hr Dox Inducible IL2FLGluc 293FRT/TO: IL2/PD1: ratio of IC50s IL2/PD1
Excerpt: Flp-In 293 T-REx™ cells were transfected with pcDNA™5/FRT/TO plasmid inserted with cDNA encoding Gaussia Luciferase fused to the 3′ end of cDNA encoding full length IL-2 (amino acids 1-153). Transfected cells were selected for resistance to the selectable markers Hygromycin and Blasticidin to create a stable cell line that contained the IL-2-FL/Gaussia Luciferase cDNA insert whose expression was regulated under the T-REx™ system. The day before assay, cells were trypsinized and plated in 384-well tissue culture plates. The next day, compound dilutions in DMSO/media containing doxycycline were added to the wells and incubated at 37° C., 5% CO2.
as §2

[5] = Liver Microsome Stability Assay, rat; assay type: in vitro ADME; details: rat liver microsomes 1.0 mg/mL, 1.0 uM compound, 37° C., 1 mM NADPH
Description: as §1

[6] = Liver Microsome Stability Assay, monkey; assay type: in vitro ADME; details: monkey liver microsomes 1.0 mg/mL, 1.0 uM compound, 37° C., 1 mM NADPH
Description: as §1

[7] = test system: multiple myeloma cell line U266B1; assay: U266 Cell Viability Assay; assay type: cell-based; details: Homo sapiens, U-266; U266B1 cells, 48 hours, Celltiter-Glo; read-out: 48 hr U266 Viability Celltiter-Glo: Mean EC50
Description: (§3) The human multiple myeloma cell line U266B1 was cultured in RPMI 1640 media supplemented with 10% fetal bovine serum, 2 mM Glutamine, and 1× Penicillin/Streptomycin. Cells were plated in 384-well tissue culture plates and treated with compound dilutions in DMSO/media. Plates were incubated at 37° C., 5% CO2 for 48 hours. After 48 hours, Celltiter-Glo® (Promega) was added to each well and luciferase signal was quantified using Tecan Infinite M1000 Pro for cell viability determination.
as §2

CD47(ss + 10)Gluc = assay: Dox-Induced CD47-ss-Gluc Assay; assay type: cell-based; details: Flp-In 293 T-REx cells, 24 hours with doxycycline; Table 1; read-out: 24 hr Dox Inducible CD47(ss + 10)Gluc 293FRT/TO: Mean IC50
[8] = test system: multiple myeloma cell line NCI-H929; assay: H929 Cell Viability Assay; assay type: cell-based, human; details: Homo sapiens; NCI-H929 cells, 48 hours, Celltiter-Glo; read-out: 48 hr H929 Viability Celltiter-Glo: Mean EC50
Description: as §3, with “NCI-H929” for “U266B1”, “cultured in Advanced RPMI 1640 media (Gibco®) supplemented with 6% fetal bovine serum, 2 mM Glutamine, and 1× Penicillin/Streptomycin. On the day of assay, cells were resuspended” for “cultured”, “Penicillin/Streptomycin and” for “Penicillin/Streptomycin. Cells were”
as §2

[9] = test system: PD1-ss+10aa/Gaussia Luciferase; assay: Dox-Induced PD1-ss-Gluc Assay; assay type: cell-based; details: Flp-In 293 T-REx cells, 24 hours with doxycycline; Table 1; read-out: 24 hr Dox Inducible PD1ssGluc 293FRT/TO: Mean IC50
Excerpt: Flp-In 293 T-REx™ cells were transfected with pcDNA™5/FRT/TO plasmid inserted with cDNA encoding Gaussia Luciferase fused to the 3′ end of cDNA encoding PD1 signal sequence plus 10 amino acids (N-[…]-C) (SEQ ID NO: 1). Transfected cells were selected for resistance to the selectable markers Hygromycin and Blasticidin to create a stable cell line that contained the PD1-ss+10aa/Gaussia Luciferase cDNA insert whose expression was regulated under the T-REx™ system. The day before assay, cells were trypsinized and plated in 384-well tissue culture plates. The next day, compound dilutions in DMSO/media containing doxycycline were added to the wells and incubated at 37° C., 5% CO2.
as §2

Structure (SMILES) | Liver Microsome Stability (Multiple Species): Human - % Remaining after 30 min w/ NADPH (%) [1] [%] | Liver Microsome Stability (Multiple Species): Mouse - % Remaining after 30 min w/ NADPH (%) [2] [%] | IC50 [3] [µM] | 24hr Dox Inducible IL6R(ss + 10)Gluc 293FRT/TO: IL6R/PD1 [3] | IC50 [4] [µM] | 24 hr Dox Inducible IL2FLGluc 293FRT/TO: IL2/PD1 [4] | Liver Microsome Stability (Multiple Species): Rat - % Remaining after 30 min w/ NADPH (%) [5] [%] | Liver Microsome Stability (Multiple Species): Monkey - % Remaining after 30 min w/ NADPH (%) [6] [%] | EC50 [7] [µM] | IC50 (CD47(ss + 10)Gluc) [µM] | EC50 [8] [µM] | IC50 [9] [µM]
CC(C)n1cnc(/C=C/c2csc(NC(=O)c3cc(Cl)cn3Cc3ccnc(F)c3)n2)c1Cl [Compound A1] | 11 | 71 | 1.89 | 62 | 2.02 | 66 | 82 | 31 | > 25 | 1.86 | > 25 | 0.03
COc1cc(C(=O)Nc2nc(/C=C/c3ncn(C(C)C)c3Cl)cs2)n(Cc2ccnc(F)c2)c1 [Compound A2, (E)-N-(4-(2-(5-chloro-1-isopropyl-1H-imidazol-4-yl)vinyl)thiazol-2-yl)-1-((2-fluoropyridin-4-yl)methyl)-4-methoxy-1H-pyrrole-2-carboxamide] | 15 | 68 | 3.27 | 133 | 4.17 | 170 | 72 | 35 | > 25 | 3.81 | > 25 | 0.024
O=C(Nc1nc(/C=C/c2cn(C(F)(F)F)cn2)cs1)c1cc(Cl)cn1Cc1ccnc(F)c1 [Compound A3, (E)-4-chloro-1-((2-fluoropyridin-4-yl)methyl)-N-(4-(2-(1-(trifluoromethyl)-1H-imidazol-4-yl)vinyl)thiazol-2-yl)-1H-pyrrole-2-carboxamide] | 6 | 61 | 4.68 | 3 | 12.2 | 7 | 21 | 4 | > 20.2 | 15.2 | 4.55 | 1.76
